Data set [1] has as its system breast carcinoma MDA-MB-231. Details: method as in PMID 26101532. Conditions: MDA-MB-231, third of three values, order assumed; cited from earlier work.
A further data set deals with NIH/3T3. The experiment in a line: MTT assay on non-malignant fibroblasts. The settings on record: Mus musculus, NIH3T3, 72 h, no IC50 calculated when less than 50% inhibition at 10 μM. Type of data set: cell-based. From the text:
(§1) The antiproliferative activities of the prepared diterpene analogues were studied using an MTT assay on a panel of human adherent cancer lines, including cells from cervical (HeLa), breast (MDA-MB-231, MCF-7), and ovary cancers (A2780), as given in Figure 1 and Table S1 in the Supplementary Materials. A non-malignant fibroblast cell line (NIH/3T3) was also utilised to obtain preliminary information on the cancer selectivity of the tested compounds. Based on the obtained activities, some conclusions could be drawn regarding the structure–activity relationships (SARs). Since neither the key intermediate benzyl ester of hydroxylaldehyde 4 nor the N-Boc protected aminoalcohols (6, 7, 11, 12) or even compound 8 with a free carboxylic function exerted remarkable antiproliferative effects (except for 12 against A2780 ovarian cancer cells), we could conclude that the simultaneous presence of the ester function and the basic secondary amino function were essential for the inhibition of cell growth. […] All active molecules inhibited considerably the proliferation of non-malignant cells, which meant that most currently presented agents were not optimal for further investigations of their anticancer properties.
(§2) The growth-inhibitory effects of the isosteviol-based 1,3-aminoalcohols were determined by a standard MTT (3-(4,5-dimethylthiazol-2-yl)-2,5-diphenyltetrazolium bromide) assay on a panel containing five cell lines, including Hela (cervical cancer), MDA-MB-231 and MCF-7 (breast cancers), and A2780 ovarian cancer cells. All cell lines were purchased from the European Collection of Cell Cultures (Salisbury, UK). The cells were maintained in a minimal essential medium supplemented with 10% foetal bovine serum, 1% non-essential amino acids, and 1% penicillin–streptomycin at 37 °C in a humidified atmosphere containing 5% CO2. All media and supplements were obtained from Lonza Group Ltd. (Basel, Switzerland). Cancer cells were seeded into 96-well plates (5000 cells/well); after overnight incubation, the test compound was added in two different concentrations (10 µM and 30 µM) and incubated for another 72 h under cell-culturing conditions. In the next step, 20 μL of 5 mg/mL of an MTT solution was added to each well and incubated for a further 4 h. The medium was removed and the precipitated formazan crystals were dissolved in DMSO after 60 min of shaking at 37 °C. As a final step, the absorbance was measured at 545 nm by using a microplate reader. Untreated cells were included as controls. […] Two independent experiments were performed with five wells for each condition. Calculations were performed using the GraphPad Prism 10.0 software (GraphPad Software Inc., San Diego, CA, USA).

Another data set deals with MCF-7. The data set is described as follows: MTT antiproliferative assay, MCF-7. Conditions: Homo sapiens, MCF7, 72 h, no IC50 calculated when less than 50% inhibition at 10 μM. Type of data set: cell-based.
Excerpt: as §1, §2

In the next data set the test system is MDA-MB-231. The experiment in a line: MTT antiproliferative assay, MDA-MB-231. The class given is cell-based. Conditions: Homo sapiens, 72 h, no IC50 calculated when less than 50% inhibition at 10 μM.
Excerpt: as §1, §2

The next data set has as its system A2780. The experiment in a line: MTT antiproliferative assay, A2780. Type of data set: cell-based. Conditions: Homo sapiens, 72 h, no IC50 calculated when less than 50% inhibition at 10 μM.
Excerpt: as §1, §2

In another data set the test system is HeLa. The data set is described as follows: MTT antiproliferative assay, HeLa. Type of data set: cell-based. The settings on record: Homo sapiens, 72 h, no IC50 calculated when less than 50% inhibition at 10 μM.
Excerpt: as §1, §2

For `COc1cccc2c1C(=O)c1c(O)c3c(c(O)c1C2=O)C[C@@](O)(C(=O)CO)C[C@@H]3O[C@H]1C[C@H](N)[C@H](O)[C@H](C)O1` [Adriamycin], the IC50 (in general, the concentration that inhibits the measured activity by half) in data set [1] was 2.26 µM.

In the case of `C[C@]12CCC3[C@](CC[C@@H]4[C@](C)(C(=O)O)CCC[C@@]34C)(C1)[C@H](CNCc1ccc(F)cc1)[C@H]2O` (stereo partly drawn) [Compound 8, (4R,4aS,6aS,7R,8R,9S,11bS)-7-(((4-Fluorobenzyl)amino)methyl)-8-hydroxy-4,9,11b-trimethyltetradecahydro-6a,9-methanocyclohepta[a]naphthalene-4-carboxylic Acid], the melting point (commonly the temperature of the solid-liquid transition) lay within 149 to 150 °C. In the data set on NIH/3T3, the half-inhibitory concentration (IC50) was over 10 µM. Moreover, the IC50 in the data set with MCF-7 is over 10 µM. The IC50 in the data set with MDA-MB-231 is over 10 µM. Besides, the half-inhibitory concentration (IC50) with A2780 is over 10 µM. The IC50 with HeLa was over 10 µM.

For `C#CCOC(=O)[C@]1(C)CCC[C@@]2(C)C3CC[C@@]4(C)C[C@]3(CC[C@H]12)[C@H](CNCc1ccc(F)cc1)[C@H]4O` (stereo partly drawn) [Compound 14, (4R,4aS,6aS,7R,8R,9S,11bS)-Prop-2-yn-1-yl 7-(((4-fluorobenzyl)amino)methyl)-8-hydroxy-4,9,11b-trimethyltetradecahydro-6a,9-methanocyclohepta[a]naphthalene-4-carboxylate], the melting point lay in the range of 104 to 105 °C. The IC50 in the data set on NIH/3T3 was 5.92 µM. Moreover, the IC50 in the data set on MCF-7 is 1.54 µM. Moreover, the IC50 with MDA-MB-231 is 2.23 µM. Besides, in the data set with A2780, the IC50 is 1.36 µM. In the data set with HeLa, the concentration for half-maximal inhibition (IC50) is 2.7 µM.

On to `CC12CCC3C(CC[C@@H]4[C@](C)(C(=O)OCc5ccccc5)CCC[C@@]34C)(C1)[C@H](CNCCCn1ccnc1)[C@H]2O` (stereo partly drawn) [Compound 20, (4R,4aS,7R,8R,11bS)-Benzyl 7-(((3-(1H-imidazol-1-yl)propyl)amino)methyl)-8-hydroxy-4,9,11b-trimethyltetradecahydro-6a,9-methanocyclohepta[a]naphthalene-4-carboxylate], for which the 50% inhibitory concentration (IC50) in the data set on NIH/3T3 was 4.78 µM; in the data set on MCF-7, 1.37 µM; in the data set with MDA-MB-231, 1.78 µM; in the data set on A2780, 3.74 µM; in the data set on HeLa, 1.99 µM.

Turning to `COC(=O)[C@]1(C)CCC[C@@]2(C)C3CC[C@@]4(C)C[C@]3(CC[C@H]12)[C@H](CN[C@H](C)c1ccc(F)cc1)[C@H]4O` (stereo partly drawn) [Compound 23, (4R,4aS,6aS,7R,8R,9S,11bS)-Methyl 7-((((R)-1-(4-fluorophenyl)ethyl)amino)methyl)-8-hydroxy-4,9,11b-trimethyltetradecahydro-6a,9-methanocyclohepta[a]naphthalene-4-carboxylate], the IC50 in the data set with NIH/3T3 was 1.79 µM; with MCF-7, 3.16 µM; in the data set with MDA-MB-231, 5.08 µM; in the data set on A2780, 4.24 µM; in the data set on HeLa, 4.16 µM.

With `CC[C@@H](NC[C@@H]1[C@@H](O)[C@@]2(C)CCC3[C@]1(CC[C@@H]1[C@](C)(C(=O)OC)CCC[C@@]31C)C2)c1ccccc1` (stereo partly drawn) [Compound 24, (4R,4aS,6aS,7R,8R,9S,11bS)-Methyl 8-hydroxy-4,9,11b-trimethyl-7-((((R)-1-phenylpropyl)amino)methyl)tetradecahydro-6a,9-methanocyclohepta[a]naphthalene-4-carboxylate], the half-inhibitory concentration (IC50) with NIH/3T3 was 4.44 µM; in the data set with MCF-7, 2.37 µM; with MDA-MB-231 it was 4.99 µM; in the data set on A2780, 4.52 µM; in the data set on HeLa, 3.04 µM.

Take `CC[C@H](NC[C@@H]1[C@@H](O)[C@@]2(C)CCC3[C@]1(CC[C@@H]1[C@](C)(C(=O)OC)CCC[C@@]31C)C2)c1ccccc1` (stereo partly drawn) [Compound 25, (4R,4aS,6aS,7R,8R,9S,11bS)-Methyl 8-hydroxy-4,9,11b-trimethyl-7-((((S)-1-phenylpropyl)amino)methyl)tetradecahydro-6a,9-methanocyclohepta[a]naphthalene-4-carboxylate]: the IC50 is 3.98 µM in the data set on NIH/3T3; 4.17 µM in the data set with MCF-7; 6.53 µM in the data set on MDA-MB-231; 4.83 µM in the data set on A2780; 4.43 µM in the data set on HeLa.

As for `COC(=O)[C@]1(C)CCC[C@@]2(C)C3CC[C@@]4(C)C[C@]3(CC[C@H]12)[C@H](CN[C@@H](C)c1ccc2ccccc2c1)[C@H]4O` (stereo partly drawn) [Compound 26, (4R,4aS,6aS,7R,8R,9S,11bS)-Methyl 8-hydroxy-4,9,11b-trimethyl-7-((((S)-1-(naphthalen-2-yl)ethyl)amino)methyl)tetradecahydro-6a,9-methanocyclohepta[a]naphthalene-4-carboxylate], the concentration for half-maximal inhibition (IC50) with NIH/3T3 is 3.12 µM; in the data set with MCF-7, 3.67 µM; in the data set on MDA-MB-231 it was 6.07 µM; in the data set on A2780, 4.11 µM; in the data set with HeLa, 4.33 µM.

`COC(=O)[C@]1(C)CCC[C@@]2(C)C3CC[C@@]4(C)C[C@]3(CC[C@H]12)[C@H](CN[C@H](C)c1ccc2ccccc2c1)[C@H]4O` (stereo partly drawn) [Compound 27, (4R,4aS,6aS,7R,8R,9S,11bS)-Methyl 8-hydroxy-4,9,11b-trimethyl-7-((((R)-1-(naphthalen-2-yl)ethyl)amino)methyl)tetradecahydro-6a,9-methanocyclohepta[a]naphthalene-4-carboxylate]: the IC50 in the data set with NIH/3T3 is 5.03 µM; with MCF-7, 2.43 µM; with MDA-MB-231, 4.11 µM; with A2780 it was 3.26 µM; in the data set on HeLa, 3.4 µM.

Regarding `COC(=O)[C@]1(C)CCC[C@@]2(C)C3CC[C@@]4(C)C[C@]3(CC[C@H]12)[C@H](CNCCCn1ccnc1)[C@H]4O` (stereo partly drawn) [Compound 28, (4R,4aS,6aS,7R,8R,9S,11bS)-Methyl 7-(((3-(1H-imidazol-1-yl)propyl)amino)methyl)-8-hydroxy-4,9,11b-trimethyltetradecahydro-6a,9-methanocyclohepta[a]naphthalene-4-carboxylate], the concentration for half-maximal inhibition (IC50) in the data set on NIH/3T3 was 1.55 µM; in the data set with MCF-7, 3.82 µM; in the data set on MDA-MB-231, 4.34 µM; in the data set on A2780, 4.42 µM; in the data set on HeLa, 3.72 µM.

Values taken from article PMC10893060, “Synthesis and Study of the Structure–Activity Relationship of Antiproliferative N-Substituted Isosteviol-Based 1,3-Aminoalcohols” (Pharmaceuticals, 2024).
